Literature values as cited in patent US20080255231A1, “POLYMORPHS OF RIVASTIGMINE HYDROGENTARTRATE” (priority 2007, published 2008).

**Q.** Which solubility in acetonitrile (acetonitrile) does the source give for `CCN(C)C(=O)Oc1cccc([C@H](C)N(C)C)c1` [Rivastigmine hydrogentartrate, [3-[α-(Dimethylamino)-ethyl]phenyl]-N-methylethylcarbamate hydrogentartrate] here?
**A.** soluble

**Q.** What about the solubility in ethanol (ethanol) of the same molecule?
**A.** soluble

**Q.** What about the “solubility in ethyl acetate” value (ethyl acetate) of the same molecule?
**A.** very slightly soluble

**Q.** And the solubility in n-octanol (n-octanol)?
**A.** slightly soluble

**Q.** What about the solubility in water (water) of the same molecule?
**A.** very soluble
